Results as given in patent US6624140B1, “Synthetic peptides with antimicrobial and endotoxin neutralizing properties for management of the sepsis syndrome” (Academisch Ziekenhuis Bij de Universiteit van Amsterdam …, priority 1997, dated 2003).
No end group written: not given here.

How the values were obtained:
[1] = tested on: Gram-negative and Gram-positive bacteria; assay: Anti-microbial activity of analogues and further peptides (bacterium not specified); assay type: cell-based; conditions: even at the highest concentration tested (20 μg/ml)
Excerpt: A peptide encompassing a selected LPS-binding domain from a well characterized human antiendotoxin protein, known as bactericidal/permeability increasing protein (BPI), from amino acids 85 to 102, denoted as BPI(85-102), was included for a direct comparison of the efficacy of the endotoxin-binding domain of a naturally occurring protein and the synthetic peptides of the invention. The amino acid sequence of the BPI(85-102) peptide is:
The BPI(85-102) reference peptide was synthesized as previously described for peptides of the invention and provided with a C-terminal Cys residue for the purpose of biotinylation as previously described. […] Incubation of various concentrations of the synthetic peptides according to the invention for a limited time period on the survival of both types of bacteria again illustrated their potent anti-microbial activity as opposed to that of the BPI(85-102) peptide (FIG. 1) with the sequence corresponding to that of the potential LPS binding domain of the native BPI protein. This is indicative of a broad specificity of the synthetic peptides, in keeping with the general bactericidal properties of this class of linear amphipathic α-helical peptides. […]

[2] = Turbidity assay of endotoxin complexation; assay type: binding, Escherichia coli; conditions: 2-fold molar excess of synthetic peptide
Method: FIG. 2. Endotoxin complexation activity of the synthetic peptides. Peptides at concentrations of 100 to 600 μg/ml were incubated with E. coli D31m4 Re or J5 LPS at 100 μg/ml in a total volume of 100 μl pyrogen-free phosphate buffered saline (PBS) in plastic ELISA microtiter plates for 30 min at 23° C. The turbidity produced by the insoluble peptide-endotoxin complexes was measured at 340 nm. The values represent the mean of three determinations and were corrected for controls containing the same concentrations of endotoxin or peptide.
(§1) Double-immunodiffusion of the peptides of the invention against ‘rough’ R-type E. coli D31m4 Re-LPS (List Biological Laboratories Inc., Calif.) or the structurally more complex ‘smooth’ S-type E. coli 0111:B4 LPS (Sigma Chemical Co., Rockford, Ill.) was performed in 0.8% (w/v) agarose containing 50 mM Tris and 0.1% (w/v) Triton X100, pH 7.5. for 16 h at 20° C. PmB and BPI(85-102) were included as control compounds for comparative purposes. The microprecipitates formed were visualized by Coommassie brilliant blue staining. […] Since the amount of precipitate formed is a function of valency, the peptides of the invention appear to be capable of a high degree of intermolecular binding of LPS molecules via the Lipid A moieties. […] A turbidity assay was employed for a direct comparison of the endotoxin-binding activity or avidity of selected synthetic peptides according to the invention using the ‘rough’ serotypes E. coli Re or Rc (J5) LPS. PmB and BPI(85-102) were included as control compounds for comparative purposes. The degree of precipitation of endotoxin by the synthetic peptides according to the invention was determined by measurement of the optical density of insoluble complexes formed at 340 nm (FIG. 2). In most instances optimal complexation of Re or J5 LPS by the synthetic peptides of the invention was evident at a molar ratio of peptide to endotoxin of 1 to 2. The control BPI(85-102) peptide was required at a 4-fold molar excess for approximately the same degree of complexation. […] There was no significant difference between complexation of Re or the structurally more complex J5-LPS by the synthetic peptides. […] The Lipid A binding affinity of the synthetic peptides were directly compared in a solid-state endotoxin-binding assay. Binding characteristics of biotinylated derivatives of the synthetic peptides BP1, BP2, BP2.1 and the control peptide BPI(85-102) were determined on ELISA microtiter plates coated with E. coli D31m4 Lipid A. Specific binding of the biotinylated peptides to the immobilized Lipid A was determined by development with Streptavidin-HRP and 3, 5, 3′, 5′ tetra-methylbenzidine (TMB) substrate and expressed as the corrected optical density at 450 nm. […] The affinity of the novel synthetic peptide BP2 for endotoxin of increasing complexity as well as the effect of plasma on binding was examined with the use of the ELISA microplate assay.

TNF-α production [3] = assay: TNF-α in whole blood ex vivo, peptide added before LPS challenge; assay type: cell-based, human; conditions: 2.5 to 20 μg/ml added 10 min before 1 ng/ml LPS
Method: FIG. 12. Effect of pre-challenge addition of synthetic peptides on TNF-a levels induced by E. coli 0111:B4 LPS in whole blood ex vivo. The synthetic peptides BP2, BP2.1 or BP2.2 were added to whole blood containing heparin at 2 I.U/ml at the concentrations indicated and incubated for 10 min at 37° C. TNF-α concentrations were measured after incubation for 4 h at 37° C. subsequent to addition of E. coli 0111:B4 LPS at 1 ng/ml. The values represent the means of triplicate experiments. Controls only contained added LPS.
To determine whether addition of synthetic peptide to whole blood ex vivo prior to endotoxin challenge was effective in endotoxin neutralization assayed in terms of cytokine production, a synthetic peptide of the invention BP2, and the analogues BP2.1 or BP2.2 were added at concentrations of 2.5 to 20 μg/ml to whole blood and incubated for 10 min at 37° C. prior to the addition of 1 ng/ml E. coli 0111:B4 LPS. TNF-α concentrations were determined as previously described. […] The structurally related LPS-binding synthetic peptide analogues BP2.1 and BP2.2 were ineffective in endotoxin neutralization under these conditions.

TNF-α production [4] = assay: TNF-α in whole blood ex vivo after pre-incubation of LPS with peptide; assay type: cell-based, human; conditions: 1 to 10 μg/ml pre-incubated with 1 ng/ml LPS, even at lowest concentration 1 μg/ml, 4 h at 37° C.
Method: FIG. 11. Effect of pre-incubation of E. coli 0111:B4 LPS with synthetic peptides or Polymyxin B on TNF-α levels in whole blood ex vivo. The indicated amounts of synthetic, control peptides or PmB were pre-incubated with E. coli 0111:B4 LPS at 1 ng/ml for […] at 23° C., added to whole blood containing heparin at 2 I.U/ml and the TNF-α concentrations determined after incubation for 4 h at 37° C. Each value is the mean of triplicate experiments. Controls only contained LPS.
In addition, the LPS-neutralizing activity of selected synthetic peptides of the invention were compared in a more complex environment of whole blood ex vivo to determine the effect of physiological concentrations of blood components such as plasma proteins, blood cells etc. on the detoxification efficacy. In pre-incubation experiments, concentrations of synthetic peptides, control peptide or PmB from 1 to 10 μg/ml were pre-incubated with 1 ng/ml E. coli 0111:B4 LPS in pyrogen-free saline for 30 min at 23° C., added to venous blood containing heparin at 2 I.U/ml as anti-coagulant and incubated for 4 h at 37° C. TNF-α concentrations were determined in appropriately diluted cell-free supernatants as described before.

[5] = Solid-state Lipid A binding ELISA microplate assay; set-up: species or system Escherichia coli; conditions: biotinylated derivatives; immobilized E. coli D31m4 Lipid A; Scatchard plot
Method: FIG. 3. Lipid A binding affinity of the synthetic peptides. Plastic ELISA microtiter plates were coated with purified E. coli D31m4 Lipid A at 1 μg/ml. Incubations were for 20 min with the indicated concentrations of synthetic peptides BP1, BP2 or BP2.1 or control peptide BPI(85-102) followed by streptavidin-HRP at a dilution of 1 in 20 000. Washing steps to remove excess peptide or streptavidin were with 50 mM Tris buffer pH 7.4 containing 0.05% (v/v) Tween 20. Development was with TMB substrate for 10 min. The optical density (O.D) at 450 nm was measured with a microplate reader and values were corrected for non-specific binding which was generally between 5 and 10%. The plotted values are the corrected means of triplicate experiments.
as §1

[6] = Double-immunodiffusion against 0111:B4 LPS; assay type: binding, Escherichia coli; conditions: 0.8% agarose, 16 h at 20° C.; data not shown
Method: Double-immunodiffusion of the peptides of the invention against ‘rough’ R-type E. coli D31m4 Re-LPS (List Biological Laboratories Inc., Calif.) or the structurally more complex ‘smooth’ S-type E. coli 0111:B4 LPS (Sigma Chemical Co., Rockford, Ill.) was performed in 0.8% (w/v) agarose containing 50 mM Tris and 0.1% (w/v) Triton X100, pH 7.5. for 16 h at 20° C. PmB and BPI(85-102) were included as control compounds for comparative purposes. The microprecipitates formed were visualized by Coommassie brilliant blue staining. […] Since the amount of precipitate formed is a function of valency, the peptides of the invention appear to be capable of a high degree of intermolecular binding of LPS molecules via the Lipid A moieties. […] The degree of precipitation of endotoxin by the synthetic peptides according to the invention was determined by measurement of the optical density of insoluble complexes formed at 340 nm (FIG. 2). […] Binding characteristics of biotinylated derivatives of the synthetic peptides BP1, BP2, BP2.1 and the control peptide BPI(85-102) were determined on ELISA microtiter plates coated with E. coli D31m4 Lipid A. Specific binding of the biotinylated peptides to the immobilized Lipid A was determined by development with Streptavidin-HRP and 3, 5, 3′, 5′ tetra-methylbenzidine (TMB) substrate and expressed as the corrected optical density at 450 nm. […]

[7] = comparison value; cited from earlier work
[8] = tested on: IL-6 inducing ability of E. coli 0111:B4 LPS; assay: Effect of heparin on neutralization of IL-6 inducing ability of LPS; assay type: cell-based, human; conditions: heparin 0.1 to 100 I.U/ml
Method: FIG. 10. Effect of heparin on the efficacy of neutralization of the IL-6 inducing ability of E. coli 0111:B4 LPS by synthetic peptide or Polymyxin B in whole blood diluted 1 in 10. Synthetic peptides at concentrations of 2 μg/ml or PmB at 1 μg/ml was pre-incubated for 30 min at 37° C. with E. coli 0111:B4 LPS at 1 ng/ml in RPMI medium containing heparin in the concentration range of 0.1 to 100 I.U/ml. The residual cytokine inducing ability of the treated endotoxin was determined in diluted whole blood containing heparin at 2 IU/ml after incubation for 16 h at 37° C. Each value is the mean of triplicate determinations corrected for background. Controls contained only LPS.
The endotoxin neutralizing activities of the synthetic peptides of the invention were evaluated by investigating the effect on LPS-stimulated release of the pro-inflammatory cytokines, tumor necrosis factor alpha (TNF-α), interleukin-6 (IL-6) or interleukin-8 (IL-8) in a well characterized in vitro human whole blood bioassay system. In one series of experiments, dilutions of E. coli 0111:B4 LPS from 0.2 to 1 ng/ml were pre-incubated with synthetic peptides at 10 μg/ml concentrations in RPMI medium for 30 min at 20° C. and added to diluted whole blood. Cytokine concentrations in the supernatants were determined after further incubation for 16 h at 37° C. in the presence of 5% CO2 by specific and sensitive ELISA kits (CLB, Amsterdam, The Netherlands). In another series of experiments, the effects of synthetic peptides at concentrations of 2,5, 5 and 10 μg/ml on IL-6 induction by 1 ng/ml 0111:B4 LPS was examined after simultaneous addition of synthetic peptide and LPS to diluted whole blood. […] The control peptide BPI(85-102) was ineffective in reducing cytokine production under these conditions even at a 4-fold higher concentration. This probably reflects the differences in binding affinity for Lipid A of BP1 and BP2 compared with the BPI(85-102) peptide of approximately 5 and 10-fold, respectively. An additional factor which may have influenced binding of the control peptide to endotoxin is the presence of heparin employed as an anti-coagulant at a concentration of […] in the assay system. […] On this basis, it was predicted that the extent of reduction of endotoxin neutralizing efficacy would be a function of the differences in affinity between peptides for endotoxin and heparin. To verify this hypothesis, a series of experiments to determine the effect of increasing heparin concentrations on the efficacy of endotoxin neutralization during pre-incubation of synthetic peptide and E. coli 0111:B4 LPS were performed. FIG. 10 illustrates a dose-dependent suppression of endotoxin neutralizing activity of the synthetic peptides by heparin as exemplified by a reduction of IL-6 inhibition. […]

Substance	anti-microbial activity [1]	avidity order (degree of insoluble peptide-endotoxin complex formation) [2]	endotoxin neutralization (TNF-α production) (TNF-α production [3])	inhibition of TNF-α production (TNF-α production [4])	apparent binding affinity Ka for Lipid A [5]	precipitation of 0111 LPS [6]	Ka for Lipid A of known LPS binding molecule [7]	influence of heparin on LPS-neutralizing activity [8]
GKLKKKWKAAKKFLKKCS [BP1.1, analogue similar to the formula]	no detectable anti-microbial activity	–	–	–	–	–	–	–
GKWKAFKKAAKKFAKKCS [BP2.2, analogue similar to the formula]	–	BP2.1>BP2.2>BP2>BP1>PmB >BPI(85-102)	ineffective	no significant reduction	–	–	–	–
GKWKLFKKAAKKFLKKCS [BP2.1, analogue similar to the formula]	no detectable anti-microbial activity	BP2.1>BP2.2>BP2>BP1>PmB >BPI(85-102)	ineffective	no significant reduction	4e+07 M⁻¹	–	–	–
Polymyxin B [PmB, reference compound]	–	BP2.1>BP2.2>BP2>BP1>PmB >BPI(85-102)	–	almost complete inhibition	–	failed to precipitate	10^7 M^−1	not influenced
